US20200101103A1, “REINFORCEMENT OF MUCUS BARRIER PROPERTIES” (CIRQLE BIOMEDICAL CONTRACEPTION IVS, priority 2017, published 2020)

Tested on: purified porcine gastric mucin
Test: Effect of muco-adhesive amino acid polymers on mucin gels (light microscopy)
Conditions: 5 mg/mL polymer, 4 μl mucin drop, 3 min to 50 min of contact
Description: (§1) FIG. 7 illustrates the effect of low or high molecular weight muco-adhesive polymers on mucin gels. A 4 μl drop of purified porcine gastric mucin was placed in a solution of poly-L-arginine (PLA, DP 11 corresponding to 1.9 kDa, 5 mg/mL), poly-L-lysine (PLL, DP 11 corresponding to 1.6 kDa, 5 mg/mL), or poly-L-lysine (PLL, DP 400 corresponding to 66 kDa, 5 mg/mL). The drop of mucin was observed under the microscope (10x objective). The three images are taken after 3 min, 12 min 30, and 50 min of contact.
as §1, with “Effect” for “FIG. 7 illustrates the effect”, “(PLA,” for “(PLA, DP 11 corresponding to”, “(PLL,” for “(PLL, DP 11 corresponding to”, “(PLL,” for “(PLL, DP 400 corresponding to”, “(10×” for “(10x”

| Substance | effect on mucin gel drop |
| --- | --- |
| poly-L-arginine [PLA, 1.9 kDa] | clearly crosslinks the mucin in depth |
| poly-L-lysine [PLL, 1.6 kDa] | clearly crosslinks the mucin in depth |
| poly-L-lysine [PLL, 66 kDa, reference compound] | changes the structure of the mucins drop and compacts it significantly |
